Test results published in patent publication US9440952B2, “Compounds inhibiting leucine-rich repeat kinase enzyme activity” (Merck Sharp & Dohme Corp., priority 2013, dated 2016).

target: T1, LRRK2(G2019S mutation, GST-LRRK2(amino acids 970-2527)) (Homo sapiens, UniProt Q5S007, G2019S); experiment: LRRK2 Km ATP LanthaScreen Assay; type: biochemical; details: Km ATP LanthaScreen Assay; LRRK2 G2019S; mean IC50 values; Examples 185-215; read-out: LRRK2 IC5)
T1 construct: GST-LRRK2(amino acids 970-2527); GST (N); purchased Life Technologies Corporation
Method in brief: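 IC50 values are means of several runs in the Km-ATP LanthaScreen format, analysed by curve fitting of the LanthaScreen read-out.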

T1 sequence (Q5S007 970-2527 G2019S): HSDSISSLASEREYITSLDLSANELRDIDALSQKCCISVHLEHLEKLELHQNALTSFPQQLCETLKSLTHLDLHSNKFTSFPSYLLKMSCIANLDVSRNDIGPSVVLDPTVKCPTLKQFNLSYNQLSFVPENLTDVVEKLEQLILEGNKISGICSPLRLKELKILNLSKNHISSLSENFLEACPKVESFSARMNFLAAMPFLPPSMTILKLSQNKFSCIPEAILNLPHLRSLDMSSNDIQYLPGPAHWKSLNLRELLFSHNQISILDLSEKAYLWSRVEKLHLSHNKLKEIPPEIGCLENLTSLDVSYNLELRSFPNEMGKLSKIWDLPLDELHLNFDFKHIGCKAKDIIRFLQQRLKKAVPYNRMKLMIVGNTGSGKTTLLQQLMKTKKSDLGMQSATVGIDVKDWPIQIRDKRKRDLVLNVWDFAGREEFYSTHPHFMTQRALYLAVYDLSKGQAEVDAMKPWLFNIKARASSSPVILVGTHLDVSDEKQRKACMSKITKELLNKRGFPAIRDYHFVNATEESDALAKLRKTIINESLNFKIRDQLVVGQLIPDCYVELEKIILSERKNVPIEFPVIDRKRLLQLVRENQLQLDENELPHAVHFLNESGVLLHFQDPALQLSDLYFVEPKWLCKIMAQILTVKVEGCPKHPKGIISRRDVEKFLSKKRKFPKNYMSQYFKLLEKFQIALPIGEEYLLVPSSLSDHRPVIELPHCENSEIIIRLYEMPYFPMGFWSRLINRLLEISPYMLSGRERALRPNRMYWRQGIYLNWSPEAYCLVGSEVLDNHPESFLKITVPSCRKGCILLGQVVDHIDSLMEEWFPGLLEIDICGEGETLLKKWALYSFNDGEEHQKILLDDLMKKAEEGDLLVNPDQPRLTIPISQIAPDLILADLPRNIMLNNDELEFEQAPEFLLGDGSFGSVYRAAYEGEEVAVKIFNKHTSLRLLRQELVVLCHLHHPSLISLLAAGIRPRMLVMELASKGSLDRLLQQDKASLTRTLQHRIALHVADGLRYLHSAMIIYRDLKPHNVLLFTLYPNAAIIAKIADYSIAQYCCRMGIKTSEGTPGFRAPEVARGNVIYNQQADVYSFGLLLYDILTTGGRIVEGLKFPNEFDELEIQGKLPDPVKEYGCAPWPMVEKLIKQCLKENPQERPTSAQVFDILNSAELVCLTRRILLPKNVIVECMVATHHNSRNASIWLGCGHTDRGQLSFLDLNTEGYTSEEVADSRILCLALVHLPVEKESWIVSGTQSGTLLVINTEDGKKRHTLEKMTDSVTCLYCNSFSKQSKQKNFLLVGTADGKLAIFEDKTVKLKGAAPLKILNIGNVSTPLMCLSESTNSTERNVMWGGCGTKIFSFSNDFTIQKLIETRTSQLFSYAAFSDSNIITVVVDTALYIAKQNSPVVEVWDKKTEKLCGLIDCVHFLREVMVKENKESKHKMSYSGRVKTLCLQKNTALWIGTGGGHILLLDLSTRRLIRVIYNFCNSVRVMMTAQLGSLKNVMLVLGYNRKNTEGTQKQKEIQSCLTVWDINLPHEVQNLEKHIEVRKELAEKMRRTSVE

In order of rising IC50:
1. CC(C)Oc1ccc2[nH]nc(-c3ccnc(N4CCC(n5cncn5)CC4)c3)c2c1 [Example 187]  4 nM
2. CC(C)Oc1ccc2[nH]nc(-c3ccnc(N4CCC(n5cnnc5)CC4)c3)c2c1 [Example 194]  4.4 nM
3. CC(C)Oc1ccc2[nH]nc(-c3ccnc(N4CCCC4)c3)c2c1 [Example 201]  5 nM
4. Cc1nnc(C2CCN(c3cc(-c4n[nH]c5ccc(OC(C)C)cc45)ccn3)CC2)o1 [Example 215]  6 nM
5. CC(C)Oc1ccc2[nH]nc(-c3ccnc(N4CCCC(c5nncn5C)C4)c3)c2c1 (stereo not shown) [Example 193]  6.2 nM
6. CC(C)Oc1ccc2[nH]nc(-c3ccnc(N4CCN(CC5CC5)CC4)c3)c2c1 [Example 211]  6.2 nM
7. CC(C)Oc1ccc2[nH]nc(-c3ccnc(N4CCN(c5cnccn5)CC4)c3)c2c1 [Example 202]  6.4 nM
8. CC(C)Oc1ccc2[nH]nc(-c3ccnc(N4CCCC(c5ccncn5)C4)c3)c2c1 (stereo not shown) [Example 205]  6.4 nM
9. CCc1nnc2n1CCN(c1cc(-c3n[nH]c4ccc(OC(C)C)cc34)ccn1)C2 [Example 195]  7.2 nM
10. CC(C)Oc1ccc2[nH]nc(-c3ccnc(N4CC[S+]([O-])CC4)c3)c2c1 [Example 191]  7.4 nM
11. CC(C)Oc1ccc2[nH]nc(-c3ccnc(N4CCN(C5CC5)CC4)c3)c2c1 [Example 210]  7.4 nM
12. CC(C)Oc1ccc2[nH]nc(-c3ccnc(N4CCN(c5ncccn5)CC4)c3)c2c1 [Example 204]  7.9 nM
13. CC(C)Oc1ccc2[nH]nc(-c3ccnc(N4CCn5ccnc5C4)c3)c2c1 [Example 196]  8.6 nM
14. CC(C)Oc1ccc2[nH]nc(-c3ccnc(N4CCN(c5ccccc5)C(=O)C4)c3)c2c1 [Example 199]  8.9 nM
15. Cc1nc2c(o1)CN(c1cc(-c3n[nH]c4ccc(OC(C)C)cc34)ccn1)CC2 [Example 198]  9.2 nM
16. Cc1ncc(N2CCN(c3cc(-c4n[nH]c5ccc(OC(C)C)cc45)ccn3)CC2)s1 [Example 206]  10.5 nM
17. CC(C)Oc1ccc2[nH]nc(-c3ccnc(N4CCN(c5ccccn5)CC4)c3)c2c1 [Example 200]  10.9 nM
18. Cc1nc2c(o1)CCN(c1cc(-c3n[nH]c4ccc(OC(C)C)cc34)ccn1)C2 [Example 197]  12.8 nM
19. CC(C)Oc1ccc2[nH]nc(-c3ccnc(N4CC(n5cccn5)C4)c3)c2c1 [Example 190]  13.2 nM
20. CC(C)Oc1ccc2[nH]nc(-c3ccnc(N4CCN(c5nccs5)CC4)c3)c2c1 [Example 203]  13.4 nM
21. CC(C)Oc1ccc2[nH]nc(-c3ccnc(N4CCn5nc(C6CC6)nc5C4)c3)c2c1 [Example 214]  15.4 nM
22. CC(C)Oc1ccc2[nH]nc(-c3ccnc(N4CC(F)(F)C4)c3)c2c1 [Example 213]  16.7 nM
23. CC(C)Oc1ccc2[nH]nc(-c3ccnc(N4Cc5cccnc5C4)c3)c2c1 [Example 208]  17.5 nM
24. Cc1nonc1N1CCN(c2cc(-c3n[nH]c4ccc(OC(C)C)cc34)ccn2)CC1 [Example 207]  20.8 nM
25. CC(C)Oc1ccc2[nH]nc(-c3ccnc(N4CCCS(=O)(=O)CC4)c3)c2c1 [Example 188]  21.4 nM
26. CC(C)Oc1ccc2[nH]nc(-c3ccnc(N4CCCN(S(C)(=O)=O)CC4)c3)c2c1 [Example 189]  22.4 nM
27. Cc1nnc(CN(C)c2cc(-c3n[nH]c4ccc(OC(C)C)cc34)ccn2)o1 [Example 192]  25.3 nM
28. CC(C)Oc1ccc2[nH]nc(-c3ccnc(N4CCCN(c5ncccn5)CC4)c3)c2c1 [Example 209]  25.5 nM
29. CC(C)Oc1ccc2[nH]nc(-c3ccnc(N4CCN(c5ncc6ccccc6n5)CC4)c3)c2c1 [Example 212]  70.6 nM
30. CC(C)Oc1ccc2[nH]nc(-c3ccnc(N4CCS(=O)(=O)c5ccccc5C4)c3)c2c1 [Example 186]  154 nM

same assay, conditions: Km ATP LanthaScreen Assay; LRRK2 G2019S; mean IC50 values; read-out: LRRK2 IC50

In order of rising IC50:
1. CCOc1ccc2[nH]nc(-c3ccnc(N4CCN(C)C(=O)C4)c3)c2c1 [Example 217]  4.9 nM
2. COC1CN(c2cc(-c3n[nH]c4ccc(OC(C)C)cc34)ccn2)C1 [Example 183]  5.3 nM
3. CC(C)Oc1ccc2[nH]nc(-c3ccnc(N4CC(S(C)(=O)=O)C4)c3)c2c1 [Example 184]  5.4 nM
4. CCOc1ccc2[nH]nc(-c3ccnc(N4CCC(F)(F)CC4)c3)c2c1 [Example 216]  5.4 nM
5. CC(C)Oc1ccc2[nH]nc(-c3ccnc(N4CC[C@H](O)C4)c3)c2c1 [Example 181]  8.2 nM
6. CCOc1ccc2[nH]nc(-c3ccnc(N4CCC(n5cccn5)C4)c3)c2c1 (stereo not shown) [Example 222]  9.3 nM
7. Oc1ccc2[nH]nc(-c3ccnc(N4CCCCC4)c3)c2c1 [Example 254]  10.1 nM
8. CC(C)Oc1ccc2[nH]nc(-c3ccnc(N4CC(O)(C(F)(F)F)C4)c3)c2c1 [Example 182]  10.8 nM
9. CCOc1ccc2[nH]nc(-c3ccnc(N4CC[C@@H](OC)C4)c3)c2c1 [Example 227]  11.3 nM
10. CCOc1ccc2[nH]nc(-c3ccnc(N4CCC(F)(F)C4)c3)c2c1 [Example 223]  13.5 nM
11. CCOc1ccc2[nH]nc(-c3ccnc(N4CCC(n5cccn5)CC4)c3)c2c1 [Example 218]  14.4 nM
12. CCOc1ccc2[nH]nc(-c3ccnc(N4CCC(C#N)(c5ccccc5)C4)c3)c2c1 (stereo not shown) [Example 225]  16.3 nM
13. CCOc1ccc2[nH]nc(-c3ccnc(N4CCn5ccnc5C4)c3)c2c1 [Example 226]  18.9 nM
14. CCOc1ccc2[nH]nc(-c3ccnc(N4C[C@@H]5C[C@H]4CO5)c3)c2c1 [Example 221]  20.9 nM
15. CCOc1ccc2[nH]nc(-c3ccnc(N4CCC5OCCC54)c3)c2c1 (stereo not shown) [Example 220]  22.6 nM
16. CCOc1ccc2[nH]nc(-c3ccnc(N4CCC4)c3)c2c1 [Example 230]  29.4 nM
17. CS(=O)(=O)C1CN(c2cc(-c3n[nH]c4ccc(O)cc34)ccn2)C1 [Example 255]  30.8 nM
18. CCOc1ccc2[nH]nc(-c3ccnc(N4C5CCCC4CC5)c3)c2c1 [Example 228]  48.9 nM
19. CCOc1ccc2[nH]nc(-c3ccnc(N4CC(C#N)(c5ccccc5)C4)c3)c2c1 [Example 219]  70 nM
20. CN1CCN(c2cc(-c3n[nH]c4ccc(OC(F)(F)F)cc34)ccn2)CC1 [Example 234]  82.5 nM
21. OC1CCN(c2cc(-c3n[nH]c4ccc(OC(F)(F)F)cc34)ccn2)CC1 [Example 231]  82.7 nM
22. OC[C@H]1CCN(c2cc(-c3n[nH]c4ccc(OC(F)(F)F)cc34)ccn2)C1 [Example 248]  96 nM
23. CS(=O)(=O)C1CN(c2cc(-c3n[nH]c4ccc(OC(F)(F)F)cc34)ccn2)C1 [Example 236]  106 nM
24. CCOc1ccc2[nH]nc(-c3ccnc(N4CC5C(C4)C5(C#N)c4ccccn4)c3)c2c1 (stereo not shown) [Example 229]  113 nM
25. FC(F)(F)Oc1ccc2[nH]nc(-c3ccnc(N4CCCC4)c3)c2c1 [Example 233]  130 nM
26. CO[C@H]1CN(c2cc(-c3n[nH]c4ccc(OC(F)(F)F)cc34)ccn2)C[C@@H]1O [Example 238]  165 nM
27. FC(F)(F)Oc1ccc2[nH]nc(-c3ccnc(N4CCN(C5CC5)CC4)c3)c2c1 [Example 244]  188 nM
28. CCc1nnc2n1CCN(c1cc(-c3n[nH]c4ccc(OC(F)(F)F)cc34)ccn1)C2 [Example 249]  190 nM
29. COC1(C)CN(c2cc(-c3n[nH]c4ccc(OC(F)(F)F)cc34)ccn2)C1 [Example 253]  201 nM
30. F[C@@H]1CCN(c2cc(-c3n[nH]c4ccc(OC(F)(F)F)cc34)ccn2)C1 [Example 240]  206 nM
31. FC(F)(F)Oc1ccc2[nH]nc(-c3ccnc(N4CCN(n5cccn5)CC4)c3)c2c1 [Example 239]  233 nM
32. FC(F)(F)Oc1ccc2[nH]nc(-c3ccnc(N4CCCCC4)c3)c2c1 [Example 232]  279 nM
33. FC(F)(F)CN1CCN(c2cc(-c3n[nH]c4ccc(OC(F)(F)F)cc34)ccn2)CC1 [Example 237]  279 nM
34. COC1CN(c2cc(-c3n[nH]c4ccc(OC(F)(F)F)cc34)ccn2)C1 [Example 246]  289 nM
35. FC(F)(F)Oc1ccc2[nH]nc(-c3ccnc(N4CC(n5cccn5)C4)c3)c2c1 [Example 241]  315 nM
36. FC1(F)CN(c2cc(-c3n[nH]c4ccc(OC(F)(F)F)cc34)ccn2)C1 [Example 247]  369 nM
37. Cc1nc2c(o1)CCN(c1cc(-c3n[nH]c4ccc(OC(F)(F)F)cc34)ccn1)C2 [Example 251]  431 nM
38. FC(F)(F)Oc1ccc2[nH]nc(-c3ccnc(N4CCN(c5ncccn5)CC4)c3)c2c1 [Example 235]  476 nM
39. FC(F)(F)Oc1ccc2[nH]nc(-c3ccnc(N4CCc5nc(C6CC6)oc5C4)c3)c2c1 [Example 252]  700 nM
40. CO[C@@H]1CCN(c2cc(-c3n[nH]c4ccc(OC(F)(F)F)cc34)ccn2)C1 [Example 250]  854 nM
41. FC1(F)CCN(c2cc(-c3n[nH]c4ccc(OC(F)(F)F)cc34)ccn2)CC1 [Example 243]  1060 nM
42. FC1(F)CCN(c2cc(-c3n[nH]c4ccc(OC(F)(F)F)cc34)ccn2)C1 [Example 245]  1490 nM

same assay, conditions: Km ATP LanthaScreen; mean IC50 of several tests; read-out: LRRK2 IC50

In order of falling IC50:
1. CC(C)Oc1ccc2[nH]nc(-c3ccnc(NS(=O)(=O)Cc4ccccn4)c3)c2c1 [Example 261]  124 nM
2. COc1cccc(S(=O)(=O)Nc2cc(-c3n[nH]c4ccc(OC(C)C)cc34)ccn2)c1 [Example 257]  78.4 nM
3. CC(C)Oc1ccc2[nH]nc(-c3ccnc(NS(=O)(=O)C4CC4)c3)c2c1 [Example 259]  63.2 nM
4. CC(C)Oc1ccc2[nH]nc(-c3ccnc(NS(=O)(=O)c4ccc(C5(C#N)CC5)cc4)c3)c2c1 [Example 263]  60.8 nM
5. CC(C)Oc1ccc2[nH]nc(-c3ccnc(NS(=O)(=O)c4ccc5c(c4)OCCO5)c3)c2c1 [Example 260]  52.3 nM
6. CC(C)Oc1ccc2[nH]nc(-c3ccnc(NS(=O)(=O)c4ccc5c(c4)N(C)C(=O)CO5)c3)c2c1 [Example 262]  43.4 nM
7. CC(C)Oc1ccc2[nH]nc(-c3ccnc(NS(=O)(=O)c4cccc(F)c4)c3)c2c1 [Example 256]  42.5 nM
